According to PubChem BioAssay AID1963984 (Molecular Pharmacology Branch, DTP, NCI, 2024):

Test system: 233499-124-R-J3-PDC spheroids with HUVEC/MSC, viability
Test: Anticancer human tumor 233499-124-R-J3-PDC patient-derived colon adenocarcinoma cell line growth inhibition [PI3K]
Conditions: for IC50: curve of first compound; for viability, T/C: stronger effect = lower value; active = viability on the fitted dose curve at most 10% of control; inactive = the rest
How it was run: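 Spheroid viability read-out. Co-cultures contained the tumor line plus HUVEC and human MSCs. Each agent was paired with a PI3K inhibitor (inavolisib, alpelisib, duvelisib, copanlisib) across half-log dilutions starting at clinical Cmax, or at 10 microM when Cmax was unknown.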

[1] = second compound 0.00316 µM, first compound 0.0316 µM
[2] = second compound 0.00316 µM, first compound 0.1 µM
[3] = second compound 0.00316 µM, first compound 0.316 µM
[4] = second compound 0.00316 µM, first compound 1 µM
[5] = second compound 0.00316 µM, first compound 3.16 µM
[6] = second compound 0.00316 µM, first compound 10 µM
[7] = second compound 0.01 µM, first compound 0.0316 µM
[8] = second compound 0.01 µM, first compound 0.1 µM
[9] = second compound 0.01 µM, first compound 0.316 µM
[10] = second compound 0.01 µM, first compound 1 µM
[11] = second compound 0.01 µM, first compound 3.16 µM
[12] = second compound 0.01 µM, first compound 10 µM
[13] = second compound 0.0316 µM, first compound 0.0316 µM
[14] = second compound 0.0316 µM, first compound 0.1 µM
[15] = second compound 0.0316 µM, first compound 0.316 µM
[16] = second compound 0.0316 µM, first compound 1 µM
[17] = second compound 0.0316 µM, first compound 3.16 µM
[18] = second compound 0.0316 µM, first compound 10 µM
[19] = second compound 0.1 µM, first compound 0.0316 µM
[20] = second compound 0.1 µM, first compound 0.1 µM
[21] = second compound 0.1 µM, first compound 0.316 µM
[22] = second compound 0.1 µM, first compound 1 µM
[23] = second compound 0.1 µM, first compound 3.16 µM
[24] = second compound 0.1 µM, first compound 10 µM
[25] = second compound 0.316 µM, first compound 0.0316 µM
[26] = second compound 0.316 µM, first compound 0.1 µM
[27] = second compound 0.316 µM, first compound 0.316 µM
[28] = second compound 0.316 µM, first compound 1 µM
[29] = second compound 0.316 µM, first compound 3.16 µM
[30] = second compound 0.316 µM, first compound 10 µM
[31] = second compound 1 µM, first compound 0.0316 µM
[32] = second compound 1 µM, first compound 0.1 µM
[33] = second compound 1 µM, first compound 0.316 µM
[34] = second compound 1 µM, first compound 1 µM
[35] = second compound 1 µM, first compound 3.16 µM
[36] = second compound 1 µM, first compound 10 µM
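Note: spheroids exposed to agents for seven days before readout.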
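Throughout, for viability, T/C: percent viability relative to DMSO vehicle control taken as 100%.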

C=CC(=O)N1CCN(c2nc(=O)n(-c3c(C)ccnc3C(C)C)c3nc(-c4c(O)cccc4F)c(F)cc23)C(C)C1 (stereo not drawn) + CC(Nc1ccc2c(c1)OCCn1cc(N3C(=O)OCC3C(F)F)nc1-2)C(N)=O
> 10 µM: IC50 (second compound 0.00316 µM) | IC50 (second compound 0.01 µM) | IC50 (second compound 0.0316 µM) | IC50 (second compound 0.1 µM) | IC50 (second compound 0.316 µM) | IC50 (second compound 1 µM)
inactive: viability, T/C [1] 101% | viability, T/C [2] 87.5% | viability, T/C [3] 87.9% | viability, T/C [4] 113% | viability, T/C [5] 100% | viability, T/C [6] 100% | viability, T/C [7] 85.9% | viability, T/C [8] 88.8% | viability, T/C [9] 77.5% | viability, T/C [10] 95.6% | viability, T/C [11] 97.5% | viability, T/C [12] 86.2% | viability, T/C [13] 85.8% | viability, T/C [14] 106% | viability, T/C [15] 91.4% | viability, T/C [16] 92.8% | viability, T/C [17] 93.5% | viability, T/C [18] 84.6% | viability, T/C [19] 103% | viability, T/C [20] 94.5% | viability, T/C [21] 91.3% | viability, T/C [22] 83% | viability, T/C [23] 87% | viability, T/C [24] 57.1% | viability, T/C [25] 92.7% | viability, T/C [26] 80.5% | viability, T/C [27] 80.8% | viability, T/C [28] 77.4% | viability, T/C [29] 71% | viability, T/C [30] 85.5% | viability, T/C [31] 61% | viability, T/C [32] 67.7% | viability, T/C [33] 44.3% | viability, T/C [34] 56.3% | viability, T/C [35] 63.6% | viability, T/C [36] 66.9%

CC(Cn1ccc(-c2ccc(C#N)c(Cl)c2)n1)NC(=O)c1cc(C(C)O)[nH]n1 (stereo not drawn) + CC(Nc1ccc2c(c1)OCCn1cc(N3C(=O)OCC3C(F)F)nc1-2)C(N)=O
inactive: viability, T/C [1] 97.5% | viability, T/C [2] 84.3% | viability, T/C [3] 86.6% | viability, T/C [4] 83.1% | viability, T/C [5] 90.8% | viability, T/C [6] 97.7% | viability, T/C [7] 99.5% | viability, T/C [8] 77.7% | viability, T/C [9] 96.2% | viability, T/C [10] 83.4% | viability, T/C [11] 82.5% | viability, T/C [12] 76.8% | viability, T/C [13] 92.1% | viability, T/C [14] 82.4% | viability, T/C [15] 67.9% | viability, T/C [16] 93.9% | viability, T/C [17] 101% | viability, T/C [18] 83% | viability, T/C [19] 83.1% | viability, T/C [20] 89.3% | viability, T/C [21] 90% | viability, T/C [22] 80.3% | viability, T/C [23] 74.4% | viability, T/C [24] 71% | viability, T/C [25] 76% | viability, T/C [26] 63.7% | viability, T/C [27] 70.5% | viability, T/C [28] 73.6% | viability, T/C [29] 90.6% | viability, T/C [30] 41.2% | viability, T/C [31] 62% | viability, T/C [32] 62% | viability, T/C [33] 47.4% | viability, T/C [34] 62.6% | viability, T/C [35] 66% | viability, T/C [36] 54.6%
> 10 µM: IC50 (second compound 0.00316 µM) | IC50 (second compound 0.01 µM) | IC50 (second compound 0.0316 µM) | IC50 (second compound 0.1 µM) | IC50 (second compound 1 µM)
7.39 µM: IC50 (second compound 0.316 µM)

Cn1ncc(Cl)c1-c1cc(C(=O)NC(CN)Cc2cccc(F)c2)sc1Cl (stereo not drawn) + CC(Nc1ccc2c(c1)OCCn1cc(N3C(=O)OCC3C(F)F)nc1-2)C(N)=O
2.73 µM: IC50 (second compound 0.0316 µM)
4.46 µM: IC50 (second compound 0.00316 µM)
inactive: viability, T/C [1] 73.9% | viability, T/C [2] 93% | viability, T/C [3] 93.9% | viability, T/C [4] 99.9% | viability, T/C [5] 58.4% | viability, T/C [6] 30.5% | viability, T/C [7] 86.1% | viability, T/C [8] 81.8% | viability, T/C [9] 81.5% | viability, T/C [10] 80.8% | viability, T/C [11] 53.3% | viability, T/C [12] 32.1% | viability, T/C [13] 111% | viability, T/C [14] 82.9% | viability, T/C [15] 80.3% | viability, T/C [16] 77.8% | viability, T/C [17] 43.8% | viability, T/C [18] 21.4% | viability, T/C [19] 97.4% | viability, T/C [20] 94.3% | viability, T/C [21] 65.6% | viability, T/C [22] 67% | viability, T/C [23] 62.3% | viability, T/C [24] 16.6% | viability, T/C [25] 79% | viability, T/C [26] 94.3% | viability, T/C [27] 61.5% | viability, T/C [28] 55.2% | viability, T/C [29] 46.9% | viability, T/C [30] 19.8% | viability, T/C [31] 42.6% | viability, T/C [32] 61.8% | viability, T/C [33] 67.2% | viability, T/C [34] 56% | viability, T/C [35] 42.9% | viability, T/C [36] 14.3%
1.73 µM: IC50 (second compound 1 µM)
1.8 µM: IC50 (second compound 0.316 µM)
3.19 µM: IC50 (second compound 0.1 µM)
3.79 µM: IC50 (second compound 0.01 µM)

Cn1nccc1Nc1nccc(-c2ccn(C(CO)c3ccc(Cl)c(F)c3)c(=O)c2)n1 (stereo not drawn) + CC(Nc1ccc2c(c1)OCCn1cc(N3C(=O)OCC3C(F)F)nc1-2)C(N)=O
0.211 µM: IC50 (second compound 1 µM)
> 10 µM: IC50 (second compound 0.00316 µM) | IC50 (second compound 0.0316 µM) | IC50 (second compound 0.1 µM)
9.87 µM: IC50 (second compound 0.01 µM)
0.694 µM: IC50 (second compound 0.316 µM)
inactive: viability, T/C [1] 81.3% | viability, T/C [2] 95.2% | viability, T/C [3] 80.5% | viability, T/C [4] 104% | viability, T/C [5] 52.7% | viability, T/C [6] 58.2% | viability, T/C [7] 83% | viability, T/C [8] 81.6% | viability, T/C [9] 74.3% | viability, T/C [10] 74.9% | viability, T/C [11] 59.5% | viability, T/C [12] 50.2% | viability, T/C [13] 95.6% | viability, T/C [14] 100% | viability, T/C [15] 71.8% | viability, T/C [16] 55.7% | viability, T/C [17] 79.3% | viability, T/C [18] 66% | viability, T/C [19] 76.3% | viability, T/C [20] 77.3% | viability, T/C [21] 82.3% | viability, T/C [22] 63.2% | viability, T/C [23] 53.1% | viability, T/C [24] 48.1% | viability, T/C [25] 78.3% | viability, T/C [26] 73% | viability, T/C [27] 58.6% | viability, T/C [28] 45.9% | viability, T/C [29] 39.6% | viability, T/C [30] 36.3% | viability, T/C [31] 55.8% | viability, T/C [32] 58.6% | viability, T/C [33] 43.5% | viability, T/C [34] 41.6% | viability, T/C [35] 38.9% | viability, T/C [36] 27.8%
